Experimental findings from patent publication US10227331B2 (priority 2015, dated 2019) are described below.

One series has as its target IMP-1 (Serratia marcescens, UniProt P52699). Briefly: biochemical. In kind it is biochemical. The following applies: CCF2-FA substrate, 2 hours at 25° C; read-out: IMP-1 IC50. In a few lines: (§1)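 Inhibitor was mixed with the metallo-β-lactamase and CCF2-FA. After 2 hours at 25° C, fluorescence of the coumarin–fluorescein cephalosporin substrate was read. IC50 was calculated with a 4-parameter fit.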

In a further series the target is NDM-1 (Klebsiella pneumoniae, UniProt C7C422). Nature of the series: biochemical. In kind it is biochemical. The following applies: CCF2-FA substrate, 2 hours at 25° C; read-out: NDM-1 IC50. In a few lines: as §1
The target of another series is VIM-1 (Pseudomonas aeruginosa (strain ATCC 15692 / DSM 22644 / CIP 104116 / JCM 14847 / LMG 12228 / 1C / PRS 101 / PAO1), UniProt A0A0F7KYQ8). Nature of the series: biochemical. The following applies: CCF2-FA substrate, 2 hours at 25° C. In a few lines: as §1
The test system of series [1] is Escherichia coli expressing NDM-1 (CLB30005, CLB30016). In kind it is cell-based. The following applies: with imipenem 1 μg/ml, 95% inhibition of bacterial growth. In a few lines: (§2)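 Colonies from overnight 35 °C blood-agar cultures were suspended in saline, diluted 1:100 into 1.1× CAMHB and exposed to test compound with or without imipenem at 1 μg/ml. After 22–24 h at 35 °C, absorbance was read to find the concentration restoring imipenem susceptibility.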

Series [2] has as its system Klebsiella pneumoniae expressing VIM-1 (IHMA599644). In kind it is cell-based. The following applies: with imipenem 1 μg/ml, 95% inhibition of bacterial growth. In a few lines: as §2
Series [3] concerns Serratia marcescens expressing IMP-1 (CL5741). In kind it is cell-based. The note with it: with imipenem 1 μg/ml, 95% inhibition of bacterial growth. In a few lines: as §2
In series [4] the test system is P. aeruginosa expressing IMP-1, efflux+ (MB9798). In kind it is cell-based, Pseudomonas aeruginosa. The following applies: for P. aeruginosa expressing IMP-1, efflux+ (MB9798) MITC95: imipenem at 2 μg/mL, in the presence of a class A, C, D serine β-lactamase inhibitor closely related to relebactam; for Efflux ratio: ratio MITC95 PA_9798/MITC95 PA_9799. The text has this: (§3) The strain background is Pseudomonas aeruginosa PAO1.

Series [5] deals with P. aeruginosa expressing IMP-1, efflux− (MB9799). Nature of the series: Efflux: concentration of MBL inhibitor which restores susceptibility to imipenem. In kind it is cell-based, Pseudomonas aeruginosa. The following applies: imipenem at 2 μg/mL, in the presence of a class A, C, D serine β-lactamase inhibitor closely related to relebactam.
Excerpt: as §3

Sequence of NDM-1 (C7C422 whole entry, looked up, species assumed): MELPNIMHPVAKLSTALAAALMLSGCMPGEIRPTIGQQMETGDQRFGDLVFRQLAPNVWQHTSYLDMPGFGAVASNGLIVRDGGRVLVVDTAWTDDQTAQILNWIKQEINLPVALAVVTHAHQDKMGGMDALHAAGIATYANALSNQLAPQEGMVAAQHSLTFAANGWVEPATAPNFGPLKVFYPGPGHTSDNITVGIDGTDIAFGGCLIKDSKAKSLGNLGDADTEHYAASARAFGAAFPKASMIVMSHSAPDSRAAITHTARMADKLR
Sequence of IMP-1 (P52699 whole entry, looked up, species assumed): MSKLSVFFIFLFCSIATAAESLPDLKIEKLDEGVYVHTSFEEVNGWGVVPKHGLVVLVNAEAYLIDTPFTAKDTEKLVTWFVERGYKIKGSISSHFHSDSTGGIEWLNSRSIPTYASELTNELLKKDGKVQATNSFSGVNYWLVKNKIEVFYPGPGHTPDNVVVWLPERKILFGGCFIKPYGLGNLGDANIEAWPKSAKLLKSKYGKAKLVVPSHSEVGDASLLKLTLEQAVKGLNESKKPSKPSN

For the molecule `NC(=O)c1nc2c(-c3ccc(S(=O)(=O)C4CNC4)c(S(N)(=O)=O)c3-c3nn[nH]n3)cccc2[nH]1` [Example 254, 4-(4-(Azetidin-3-ylsulfonyl)-3-sulfamoyl-2-(2H-tetrazol-5-yl)phenyl)-1H-benzo[d]imidazole-2-carboxamide], the half-inhibitory concentration (IC50) on IMP-1 worked out at 0.748 nM; on NDM-1, 0.0825 nM; on VIM-1, 0.218 nM. Also, in series [1] (NDM-1 (CLB30016)), the “Escherichia coli MITC95” value was found to be 1.563 µM. Also, the “Klebsiella pneumoniae MITC95” value in series [2] (VIM-1 (IHMA599644)) came out at 6.25 µM. For the same molecule, the “Serratia marcescens MITC95” value in series [3] (IMP-1 (CL5741)) was determined as 3.125 µM. Also, the “P. aeruginosa expressing IMP-1, efflux+ (MB9798) MITC95” value in series [4] was found to be 3.125 µM. The Efflux ratio in series [4] stood at 2.00. For the same molecule, the “P. aeruginosa expressing IMP-1, efflux− (MB9799) MITC95” value in series [5] was found to be 1.563 µM.
With `NS(=O)(=O)c1c(S(=O)(=O)C2CNC2)ccc(-c2csc(N3CCOCC3)n2)c1-c1nnn[nH]1.O=C(O)C(F)(F)F` [Example 124, 3-((4-(2-morpholinothiazol-4-yl)-2-sulfamoyl-3-(1H-tetrazol-5-yl)phenyl)sulfonyl)azetidin-1-ium 2,2,2-trifluoroacetate], the IC50 on IMP-1 worked out at 6.1 nM; at NDM-1, 1.5 nM; against VIM-1 it was 4.95 nM. The “Escherichia coli expressing NDM-1 (CLB30016) MITC95” value in series [1] stood at 3.125 µM. Further, in series [2], the “Klebsiella pneumoniae expressing VIM-1 (IHMA599644) MITC95” value was determined as 12.5 µM. For the same molecule, the “Serratia marcescens expressing IMP-1 (CL5741) MITC95” value in series [3] turned out to be 6.25 µM. Moreover, in series [4], the “P. aeruginosa expressing IMP-1, efflux+ (MB9798) MITC95” value was found to be 200 µM. For the same molecule, the Efflux ratio in series [4] was 127.96. The “P. aeruginosa expressing IMP-1, efflux− (MB9799) MITC95” value in series [5] was 1.563 µM.
For the molecule `NCCS(=O)(=O)c1ccc(-c2cncc(CO)c2)c(-c2nnn[nH]2)c1S(N)(=O)=O.O=C(O)C(F)(F)F` [Example 143, 2-((4-(5-(hydroxymethyl)pyridin-3-yl)-2-sulfamoyl-3-(1H-tetrazol-5-yl)phenyl)sulfonyl)ethanaminium 2,2,2-trifluoroacetate], the concentration for half-maximal inhibition (IC50) on IMP-1 came to 8.83 nM; on NDM-1, 11.2 nM; on VIM-1, 2.02 nM. In addition, the “Escherichia coli expressing NDM-1 (CLB30016) MITC95” value in series [1] turned out to be 1.563 µM. Besides, in series [2], the “Klebsiella pneumoniae expressing VIM-1 (IHMA599644) MITC95” value came out at 3.125 µM. The “Serratia marcescens expressing IMP-1 (CL5741) MITC95” value in series [3] worked out at 3.125 µM. Besides, the “P. aeruginosa expressing IMP-1, efflux+ (MB9798) MITC95” value in series [4] came out at 12.5 µM. In addition, the Efflux ratio in series [4] is on record as 8.00. For the same molecule, in series [5], the “P. aeruginosa expressing IMP-1, efflux− (MB9799) MITC95” value was found to be 1.563 µM.
For the molecule `Cn1cnc2cc(-c3ccc(S(=O)(=O)C4CNC4)c(S(N)(=O)=O)c3-c3nnn[nH]3)cnc21.O=C(O)C(F)(F)F` [Example 103, 3-((4-(3-methyl-3H-imidazo[4,5-b]pyridin-6-yl)-2-sulfamoyl-3-(1H-tetrazol-5-yl)phenyl)sulfonyl)azetidin-1-ium 2,2,2-trifluoroacetate], the figures for the IC50 on IMP-1, at NDM-1 and at VIM-1 were 1.85 nM, 0.954 nM and 0.581 nM, respectively. For the same molecule, in series [1], the “Escherichia coli expressing NDM-1 (CLB30016) MITC95” value was 12.5 µM. Moreover, in series [2], the “Klebsiella pneumoniae expressing VIM-1 (IHMA599644) MITC95” value is 6.25 µM. Also, the “Serratia marcescens expressing IMP-1 (CL5741) MITC95” value in series [3] is 3.125 µM. Besides, the “P. aeruginosa expressing IMP-1, efflux+ (MB9798) MITC95” value in series [4] was determined as 12.5 µM. In addition, the Efflux ratio in series [4] turned out to be 8.00. In addition, the “P. aeruginosa expressing IMP-1, efflux− (MB9799) MITC95” value in series [5] was determined as 1.563 µM.
Turning to `Nc1nc2ccc(-c3ccc(S(=O)(=O)C4CNC4)c(S(N)(=O)=O)c3-c3nn[nH]n3)cc2o1` [Example 29, 3-(2-aminobenzo[d]oxazol-6-yl)-6-(azetidin-3-ylsulfonyl)-2-(2H-tetrazol-5-yl)benzenesulfonamide], the IC50 at IMP-1 worked out at 0.313 nM; on NDM-1, 0.24 nM; against VIM-1, 0.328 nM. Besides, the “Escherichia coli expressing NDM-1 (CLB30016) MITC95” value in series [1] was 1.563 µM. Also, the “Klebsiella pneumoniae expressing VIM-1 (IHMA599644) MITC95” value in series [2] is 3.125 µM. Moreover, the “Serratia marcescens expressing IMP-1 (CL5741) MITC95” value in series [3] worked out at 1.563 µM. Moreover, the “P. aeruginosa expressing IMP-1, efflux+ (MB9798) MITC95” value in series [4] worked out at 3.125 µM. In addition, the Efflux ratio in series [4] worked out at 2.00. The “P. aeruginosa expressing IMP-1, efflux− (MB9799) MITC95” value in series [5] worked out at 1.563 µM.

What is called IC50 is the concentration that gives 50% inhibition.
